The text below walks through data of patent US9839644B2, “Formulations and methods for treatment of metabolic syndrome” (ARKAY Therapeutics, LLC, priority 2014, dated 2017).

For one experiment, the system named is C57BL/6J mice. To be noted: mouse, in vivo; cited from earlier work.
In experiment [1] the test system is male Sprague Dawley rats fed with High fructose diet or High fat diet (HFD). To be noted: rat, in vivo; cited from earlier work.
The subject of the next experiment is C57BL/6J DIO mice. To be noted: Metformin alone (150 mg/Kg/day), 29-day study.
Experiment [2] has as its system C57BL/6J diet-induced obese (DIO) mice. To be noted: cited from earlier work.
In the next experiment the test system is pancreatic beta cells. The settings on record: cited from earlier work.
Experiment [3] relates to C57BL/6J obese mice. The settings on record: cited from earlier work.
Experiment [4] deals with C57BL/6J obese mice. The settings on record: cited from earlier work. This is another data set of the same source.
For experiment [5] the following is noted: clinical study; cited from earlier work.
A further experiment has as its system obese patients with T2DM. The settings on record: translational preclinical models and obese patients with T2DM; cited from earlier work.
Experiment [6] deals with subjects with impaired glucose metabolism. To be noted: 26 weeks; cited from earlier work.
Another experiment deals with prediabetes patients. To be noted: cited from earlier work.
The subject of experiment [7] is C57BL/6J diet-induced obese (DIO) mice. The settings on record: cited from earlier work. This is another data set of the same source.

Entries after “also recorded” stand apart in the source; their conditions may differ.

From the text for C57BL/6J DIO mice: Age and weight-matched C57BL/6J lean and DIO male mice were obtained from Jackson Labs (Bar Harbor, Me.). C57BL/6J DIO mice were fed high-fat diet (HFD) for 16 weeks to induce hepatic insulin resistance and pancreatic beta cell dysfunction. […] Lean control mice were maintained on D12450B (10% Kcal fat) Chow diet and DIO animals were maintained D12492 (60% KCal fat) research diets. Tap water was available ad libitum during the study. Animals were acclimated for a week. […] Test articles or the drugs were reconstituted in DMSO and 0.5% Methyl cellulose was used as the vehicle.
In a 29-day study, sub-maximal dose of Metformin (150 mg/Kg/day) and sub-maximal doses of Celecoxib (10 mg/Kg/day or 20 mg/Kg/day) were administered together or the vehicle was administered as an oral gavage in the morning and a sub-hypertensive dose of Valsartan (2 mg/Kg/day) or the vehicle was administered 6 hours later. Non-fasting BG measurements will be taken on Days 1, 15, 22, and 29. Animals were transferred to clean cages, food and water were uninterrupted. A blood sample was collected via tail nick and blood glucose was assessed using a hand-held Glucometer. Body weights were determined twice weekly for the duration of the study period.

As for `COc1ccc2c(c1)c(CC(=O)O)c(C)n2C(=O)c1ccc(Cl)cc1` [Indomethacin], in the experiment on C57BL/6J mice, the “HFD-induced obesity and insulin resistance” value is reported as “prevented”.
On to `CS(=O)(=O)Nc1ccc([N+](=O)[O-])cc1Oc1ccccc1` [Mesulid], for which, in experiment [1], the insulin sensitivity result was “restore”, the low-grade inflammation entry is on record as “reverse” and the oxidative stress result was “reduce”.
Take `CN(C)C(=N)N=C(N)N` [Metformin]: the “elevated non-fasting BG levels” value in the experiment on C57BL/6J DIO mice is “actually enhanced; also recorded: did not suppress”. Besides, the “glucose tolerance (OGTT)” value in experiment [2] (2 g/Kg glucose after 20 hour fast, 0.25% and 0.5% Metformin = 150 and 300 mg/Kg/day) is recorded as “improves”. The HFD-induced insulin resistance result in [2] (C57BL/6J DIO model) is on record as “ameliorates”.
Turning to `CS(=O)(=O)Nc1ccc([N+](=O)[O-])cc1OC1CCCCC1` [NS-398], in the experiment with pancreatic beta cells, the beta cell dysfunction entry was “reverses”.
Consider `NS(=O)(=O)c1ccc(-n2nc(C(F)(F)F)cc2-c2ccc(Cl)cc2)cc1` [SC58236], for which the “glucose tolerance (IPGTT)” value with C57BL/6J obese mice [3] (6 hour fast, glucose 2 g/Kg) is given as “improves”. The plasma insulin levels entry in the experiment on C57BL/6J obese mice [3] (after glucose injection) is “elevates”. In addition, the HbA1c levels entry in the experiment on C57BL/6J obese mice [4] (C57BL/6J obese mice) is recorded as “reduces”. Moreover, the “reduction of HbA1c levels” value in the experiment on C57BL/6J obese mice [4] (selective Cox-2 inhibition) is “about 0.4%”.
Turning to `O=C(Oc1ccccc1C(=O)O)c1ccccc1O` [Salsalate], the “reduction of glycosylated hemoglobin A1c, average” value in [5] is listed as 0.37%. For the same compound, the systemic insulin sensitivity result with obese patients with T2DM is listed as “restore”.
With `CCCCC(=O)N(Cc1ccc(-c2ccccc2-c2nnn[nH]2)cc1)[C@H](C(=O)O)C(C)C` [Valsartan], the “beta cells function and insulin sensitivity” value in experiment [6] was “improved”. Further, the “onset of Type II diabetes” value in the experiment with prediabetes patients is on record as “delay the onset”. In addition, the systolic blood pressure entry in experiment [7] (1 mg/Kg/day, C57BL/6J obese mice) is “no effect”. In addition, the glucose tolerance result in [7] (overnight fast, IP 2 g/Kg glucose) is given as “improves”. Besides, the impaired glucose tolerance entry in experiment [7] (sub-hypertensive dose 1 mg/Kg/day, C57BL/6J obese mice) was “improves”.
